Values of other authors, collected in patent publication US20170202789A1, “METHODS AND RELATED COMPOSITIONS FOR IMPROVED DRUG BIOAVAILABILITY AND DISEASE TREATMENT” (priority 2014, published 2017).

Experiments:
[1] = caffeine 160 mg drink prior to cycling time trial, p<0.01
[2] = co-administration with carbohydrate drink, depending on dose and frequency
[3] = 3 mg/kg one hour prior to running, p<0.05
[4] = 400 mg, untrained individuals
[5] = 6 mg/kg + maintenance doses, with 7% carbohydrate drink
[6] = doses of 6-9 mg/kg

SMILES	concentration at which formation of EP is inhibited (Na/K ATPase)	reduction of time to complete the trial [1] [%]	increase in performance [2]	improvement in performance compared to placebo [3] [%]	effect on bench press, leg extension strength or cycle ergometry [4]	difference in performance with versus without caffeine [5]	cognitive function before exercise (energy drink with caffeine, low dose)	cognitive function after exercise (low and medium dose caffeine containing energy drinks)	adverse effects [6]
[O]=[V]([O-])([O-])[O-] [vanadate]	less than 1 micromolar								
Cn1c(=O)c2c(ncn2C)n(C)c1=O [caffeine]		~5	2-3%	1.2	did not have any positive effects	No differences were noted	improved long term memory	improved all cognitive tests	jitters, increased heart rate, and a diminution in exercise performance
